From US6545040B1, “Method of lowering the blood pressure” (Janssen Pharmaceutica N.V., priority 1988, dated 2003)

Tested on: spontaneous hypertensive rats
Assay: Blood pressure and heart rate in conscious spontaneous hypertensive rats after intraperitoneal injection
Type: in vivo
Conditions: alone
Protocol: Adult spontaneous hypertensive rats (6 months of age) were anesthetized by ether inhalation. The femoral artery was dissected and cannulated, and the catheter was connected to a strain-gauge blood pressure transducer. When the animals were fully awake, they were restrained and the systolic and diastolic arterial blood pressure were continuously recorded. An observation period of at least 30 min preceded the administration of the test compound. All test compounds were dissolved in 20% polypropylene glycol and injected intraperitoneally. After administration of the test drug the systolic and diastolic arterial blood pressure and the heart rate were recorded during a period of 120 minutes.

[1] = 1.25 mpk i.p., treated vs untreated animals

Structure (SMILES): CC(C)NCC(O)COc1ccc(CC(N)=O)cc1 (stereo not drawn) [Atenolol, atenolol]
- Δ% change in diastolic blood pressure (DBP), average 120 min (10 mpk i.p.): +5.9%
- Δ% change in heart rate (HR), average 120 min (10 mpk i.p.): −28.1%
- Δ% change in systolic blood pressure (SBP), average 120 min (10 mpk i.p.): −3.7%

Structure (SMILES): NNc1nncc2ccccc12 [Hydralazine, hydralazine]
- Δ% change in diastolic blood pressure (DBP), average 120 min (0.63 mpk i.p.): −9.9%
- Δ% change in heart rate (HR), average 120 min (0.63 mpk i.p.): −1.45%
- Δ% change in systolic blood pressure (SBP), average 120 min (0.63 mpk i.p.): −7.5%

Structure (SMILES): COCCc1ccc(OCC(O)CNC(C)C)cc1 (stereo not drawn) [Metoprolol, metoprolol]
- Δ% change in diastolic blood pressure (DBP), average 120 min (10 mpk i.p.): +12.8%
- Δ% change in heart rate (HR), average 120 min (10 mpk i.p.): −16.6%
- Δ% change in systolic blood pressure (SBP), average 120 min (10 mpk i.p.): −1.2%

Structure (SMILES): Cc1ccc(N(CC2=NCCN2)c2cccc(O)c2)cc1 [Phentolamine, phentolamine]
- Δ% change in diastolic blood pressure (DBP), average 120 min (0.63 mpk i.p.): −13.1%
- Δ% change in heart rate (HR), average 120 min (0.63 mpk i.p.): +5.1%
- Δ% change in systolic blood pressure (SBP), average 120 min (0.63 mpk i.p.): −9.85%

Structure (SMILES): COc1cc2nc(N3CCN(C(=O)c4ccco4)CC3)nc(N)c2cc1OC [Prazosin, prazosin]
- Δ% change in diastolic blood pressure (DBP), average 120 min (0.01 mpk i.p.): −11.3%
- Δ% change in heart rate (HR), average 120 min (0.01 mpk i.p.): +1.6%
- Δ% change in systolic blood pressure (SBP), average 120 min (0.01 mpk i.p.): −10.9%

Structure (SMILES): CC(C)NCC(O)COc1cccc2ccccc12 (stereo not drawn) [Propranolol, propranolol]
- Δ% change in diastolic blood pressure (DBP), average 120 min (5 mpk i.p.): +12.4%
- Δ% change in heart rate (HR), average 120 min (5 mpk i.p.): −20.7%
- Δ% change in systolic blood pressure (SBP), average 120 min (5 mpk i.p.): −2%

Structure (SMILES): O[C@@H](CNC[C@H](O)[C@H]1CCc2cc(F)ccc2O1)[C@@H]1CCc2cc(F)ccc2O1 [compound 1]
- Δ% change in diastolic blood pressure (DBP), average 120 min [1]: +2.1%
- Δ% change in heart rate (HR), average 120 min [1]: 0.5%
- Δ% change in systolic blood pressure (SBP), average 120 min [1]: 0%
- Δ% change in diastolic blood pressure (DBP), average 120 min (2.5 mpk i.p.): 0%
- Δ% change in heart rate (HR), average 120 min (2.5 mpk i.p.): 0%
- Δ% change in systolic blood pressure (SBP), average 120 min (2.5 mpk i.p.): −7%
